In paper PMC3636874, “An Antedrug of the CXCL12 Neutraligand Blocks Experimental Allergic Asthma without Systemic Effect in Mice” (The Journal of Biological Chemistry, 2013):

What was measured:
[1] = system: inflammatory cell recruitment in the airways of OVA-sensitized and challenged BALB/c mice; assay: 8-day murine model of airway hypereosinophilia (OVA sensitization and challenge), cell counts in BALF; type: in vivo, mouse; conditions: intranasal 300 nmol/kg in 10% HP-βCD; for effect on eosinophil / inflammatory cell recruitment in BALF after OVA challenge, intranasal: 2 h before each challenge
Protocol: The in vivo activity of the compounds was assessed in an 8-day model of hypereosinophilia created by immunization and challenge to ovalbumin in mice. Briefly, 9-week-old male BALB/c mice were sensitized by intraperitoneal injection of a mixture of 50 μg of ovalbumin (OVA, grade V; Sigma-Aldrich) adsorbed on aluminum hydroxide (2 mg; Sigma-Aldrich) in 0.1 ml of saline on days 0, 1, and 2. Mice were challenged intranasally with 10 μg of OVA in 25 μl of saline (12.5 μl/nostril) on days 5, 6, and 7. Control mice received intraperitoneal and intranasal administrations of saline alone. Intranasal administrations were performed under anesthesia with 50 mg/kg ketamine and 3.33 mg/kg xylazine given intraperitoneally. Food and water were supplied ad libitum. Animal experimentation was conducted with the approval of the government body that regulates animal research in France. The chalcone compounds were administered either by the intraperitoneal or intranasal routes. In a first set of experiments, mice received either chalcone 4 or carbonitrile-chalcone 4 solubilized in PBS with 10% HP-βCD (C0926, Sigma) by intranasal injection 2 h before each nasal OVA or saline challenge. In a second set of experiments, mice received CN-chalcone 4, vanillin, or parachlorobenzoylacetonitrile intranasally, in PBS with HP-βCD 10%, 2 h before each OVA or saline challenge. In the last set of experiments, mice received chalcone 4 or CN-chalcone 4 in suspension in carboxymethylcellulose 1% or solubilized in PBS with HP-βCD 10% and administered by intraperitoneal injection 2 h before each OVA or saline challenge. Collection of bronchoalveolar lavage fluid (BALF) was performed 24 h after the last OVA challenge. Mice were deeply anesthetized by intraperitoneal injection of 150 mg/kg ketamine and 10 mg/kg xylazine. A plastic canula was inserted into the trachea, and airways were lavaged by 10 instillations of 0.5 ml of ice-cold saline supplemented with 2.6 mM EDTA (saline-EDTA). Total and differential cell counts in the BALF were performed after centrifugation (300 × g for 5 min at 4 °C) to pellet cells. Erythrocytes were lysed by hypotonic shock by the addition of 1.5 ml of distilled H2O, followed by the addition of 0.5 ml of 0.6 M KCl. Cells were centrifuged and resuspended in 500 μl of ice-cold saline-EDTA, and total cell counts were determined using a hemocytometer (Neubauer's chamber). Differential cell counts were assessed on cytologic preparation obtained by cytocentrifugation (Cytospin 3, Shandon Ltd.) of 200 μl of diluted BALF (250,000 cells/ml in ice-cold saline-EDTA). Slides were stained with Hemacolor (Merck), and counts were performed on at least 400 cells for each preparation. Differential counts were expressed as absolute numbers or as a percentage of the total number of cells.
The in vivo activity of CN-chalcone 4 was assayed in a recently developed 8-day mouse model of airway hypereosinophilia ([24]). In this model, mice are sensitized by intraperitoneal injection of OVA (50 μg) adsorbed on 2 mg of aluminum hydroxide in 0.1 ml of saline on days 0, 1, and 2. Mice are then challenged intranasally with 10 μg of OVA in 25 μl of saline (12.5 μl/nostril) on days 5, 6, and 7. Drugs to be tested can be administered either systemically by the intraperitoneal route or locally by the intranasal route. The intranasal route mimics the inhalation exposure used in humans, which is the preferred and well accepted administration for inflamed airway treatment, in particular asthma. Thus, unless otherwise stated, drugs were administered intranasally in this study. Due to limited solubility of chalcone 4 (9 ± 1 μM) and CN-chalcone 4 (16 ± 2 μM) in saline buffer, drugs were dissolved in physiological solutions complemented with HP-βCD (10%, w/w). Under such conditions, chalcone 4 and CN-chalcone 4 could be dissolved at maximal concentrations reaching 690 ± 44 and 493 ± 36 μM, respectively.

[2] = molecular target: T1, CXCL12 binding to CXCR4 (Homo sapiens, UniProt P48061); assay: FRET-based binding of CXCL12-TR to EGFP-hCXCR4 (competition); conditions: concentrations up to 10 μM
T1 construct: expressed in transfected cells
Protocol: FRET-based binding experiments were carried out as described ([26], [46]). Human embryonic kidney 293 cells expressing the fusion receptor EGFP-hCXCR4 were harvested in PBS (137 mM NaCl, 2.7 mM KCl, 4.3 mM Na2PO4·7H2O, 1.4 mM KH2PO4, pH 7.4) supplemented with 5 mM EDTA, pH 7.4, centrifuged, and resuspended in HEPES-bovine serum albumin (BSA) buffer (10 mM HEPES, 137.5 mM NaCl, 1.25 mM MgCl2, 1.25 mM CaCl2, 6 mM KCl, 10 mM glucose, 0.4 mM NaH2PO4, 0.1% bovine serum albumin (w/v), pH 7.4). Cells were used at a concentration of 10^6 cells/ml. Apparent affinities of the different ligands were determined by real-time fluorescence monitoring ligand-receptor interactions. […] Fluorescence emitted at 510 nm (excitation at 470 nm) was recorded at 21 °C using a Fluorolog 2 spectrofluorimeter (SPEX) and sampled every 0.3 s. Binding of CXCL12-TR to EGFP-labeled CXCR4 was detected as a reversible decline of emission at 510 nm, due to energy transfer from excited EGFP to TR. For competition experiments, the fluorescent chemokine was preincubated for 1 h at room temperature with or without various concentrations of each chalcone. Then the premix was added, and fluorescence was recorded until equilibrium was reached (300 s). Data were analyzed using Kaleidagraph 3.08 software (Synergy Software, Reading, PA).

[3] = molecular target: T1, CXCL12 binding to CXCR4; set-up: method as in PMID 18556651; conditions: cited from earlier work

Row | Structure (SMILES) | effect on eosinophil / inflammatory cell recruitment in BALF after OVA challenge, intranasal [1] | binding-neutralizing activity (CXCL12-TR binding to EGFP-CXCR4) [2] | activity upon CXCL12 binding to CXCR4 [3] | cell recruitment in the airways elicited by compound itself (saline-challenged mice), intranasal ([1]; no OVA challenge)
1 | N#CCC(=O)c1ccc(Cl)cc1 [pCBA, para-chlorobenzoylacetonitrile] | no effect on eosinophil recruitment in the airways | Neither vanillin nor pCBA exhibits any binding-neutralizing activity | – | –
2 | O=C(/C=C/c1ccccc1)c1ccccc1 [chalcone 1, reference compound] | nor does it significantly attenuate eosinophil or any other inflammatory cell recruitment in the airways | – | inactive | does not promote any inflammatory response per se
3 | COc1cc(C=O)ccc1O [vanillin] | no effect on eosinophil recruitment in the airways | Neither vanillin nor pCBA exhibits any binding-neutralizing activity | – | –
